Data published in patent publication US12103939B2, “Solid pharmaceutical gold-based composition” (KING FAHD UNIVERSITY OF PETROLEUM AND MINERALS, priority 2019, dated 2024).

How the values were obtained:
PC3 cell xenografts = assay: Human prostate tumor xenograft experiment; type: in vivo, female athymic nude mice
Experimental: Animal experiments were approved by the Italian Ministry of Health (no. 671/2015/PR). Ten 4-week-old female athymic nu/nu (nude) mice were purchased from Envigo. PC3 cells (3×10^6 in a 0.1 mL solution of Matrigel 1:3 in PBS) were inoculated subcutaneously into the right flank of each mouse. Body weight and tumors were measured three times a week, and tumor volumes were calculated according to the formula: (width^2×length×3.14)/6. When tumors reached a volume of ca. 120 mm^3, mice were divided into two groups of five animals each. Mice were treated every other day with an intratumoral injection of 2.5 mg/kg C6 or an equal volume of vehicle (10% DMSO, 20% Cremophor Sigma-Aldrich, 70% PBS). Mice were killed on day 32 when control tumors had reached about 1300 mm^3.

PC3 cells [1] = assay: Apoptosis assay (Annexin V-FITC / propidium iodide, flow cytometry); type: cell-based, human; conditions: PC3, C6 at IC50 and IC75, 24 h
Experimental: For apoptosis assays, PC3 cells were treated with C6 for 24 h and then apoptosis was assayed by staining for 15 min with FITC Annexin V reagent (BD Pharmingen) and propidium iodide (PI). Apoptotic cells were detected by flow cytometry (BD FACSCanto II flow cytometer) and analyzed using BD FACSDiva v8.0.1 software (BD Biosciences). Caspase 3,7 activation was evaluated using fluorochrome-labeled inhibitors of caspases (FLICA) of the CaspaTag Caspase 3,7 In Situ Assay Kit, Fluorescein (Millipore) and evaluated by flow cytometry; data were expressed as mean fluorescence intensity.

PC3 cells [2] = assay: Cellular uptake of gold(III) complexes (ICP-MS); type: cell-based, human; conditions: 3 μM, 2 h, ICP mass spectrometry
Experimental: After treatment, monolayers were washed with ice-cold PBS four times, and the cells were detached with trypsin-EDTA and washed three times with ice-cold PBS by centrifugation. The cell pellet was solubilized in 700 μL of HNO3—HCl solution (1:3 molar ratio) for 2 h at 100° C., and then diluted with 4 mL water. Samples were analyzed for gold on an Agilent 7500 inductively coupled plasma mass spectrometer (ICP-MS). Results were expressed as ng gold/10^6 cells. The experiment was performed a total of two times and the results were expressed as mean and SD.

PC3 cells [3] = assay: Double-stranded DNA breaks (histone H2A.X phosphorylation); type: cell-based, human; conditions: PC3, 24 h
Experimental: The presence of double-stranded DNA breaks was assessed 24 h after treatment with C6 by fixing and permeabilizing cells with Fix & Perm medium A and B (Invitrogen) and staining with FITC anti-H2A.X Phospho (Ser139) Antibody (BioLegend, San Diego, USA). Stained cells were evaluated by flow cytometry.

C[N+](C)=C1[S][Au-]2([S]1)[n+]1ccc[n+]3c1-c1[n+]2ccc[n+]1[Au-]31[S]C(=[N+](C)C)[S]1.[Cl-].[Cl-].[Cl-].[Cl-] [C6, [Au2(BPM)(DMDTC)2]Cl4]
inhibitory effect on tumor growth (PC3 cell xenografts; day 32, 2.5 mg/kg intratumoral every other day, vs vehicle): 71% | mean tumor volume (PC3 cell xenografts; day 32, 2.5 mg/kg intratumoral every other day, control 1327 mm^3): 385 mm^3 | weight of the animals (PC3 cell xenografts; xenografted mice, 2.5 mg/kg intratumoral): did not affect the weight of the animals | percentage of annexin-V-positive and annexin-V/PI-positive cells (apoptosis) (PC3 cells [1]): dose-dependent increase in the percentage of annexin-V-positive cells | amount of internalized gold (cellular uptake) (PC3 cells [2]): internalization even greater than that of C7 | double-stranded DNA breaks (phosphorylation of histone H2A.X) (PC3 cells [3]): increase in phosphorylation of histone H2A.X
